The subject of the assay is Mycobacterium tuberculosis H37Rv growth inhibition, no glycerol. The assay can be described thus: Mycobacterium tuberculosis H37Rv growth inhibition, no glycerol, confirmatory dose response (AID 449764).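 For all read-outs here: growth read after 7 days of incubation.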 The following applies: for IC90: measured here: IC90 growth inhibition.

The pIC50 is −log10 of the IC50, conventionally taken in molar units. Usually IC90 stands for the point of the concentration-response curve where the effect stands at 90%.

Structures are written as SMILES. pIC50: −log10 of the molar value.

`O=C(N/N=C\c1ccc[nH]1)c1cncc(Br)c1`: the negative-log IC50 (pIC50) was 4.34 and the concentration for an effect of 90% (IC90) is 50.8 µM.
Regarding `O=C(Cc1ccc([N+](=O)[O-])cc1)Nc1cc(C(F)(F)F)cc(C(F)(F)F)c1`, the pIC50 is 5.61 and the IC90 was 3.41 µM.
For `CSCCCNC(=S)N1CCN(c2ccc(C(C)=O)cc2)CC1`, the pIC50 was 4.43 and the IC90 stood at 49.7 µM.
As to `O=C(c1ccccc1)c1ccc(OCCOCCN2CCN(Cc3ccccc3)CC2)cc1`, the negative logarithm of the IC50 (pIC50) is 4.62 and the IC90 stood at 27.5 µM.
With `CC(c1ccccc1)N1CCN(C(=O)CCl)CC1` (configuration not stated), the pIC50 was 5.56 and the IC90 turned out to be 4.33 µM.
In the same order, the values of `COc1cc(NC(=O)c2ccc(COc3ccccc3Br)o2)cc(OC)c1OC` are 4.17 and over 100 µM.
Regarding `Nc1c(C(=O)NC2CCCCC2)nsc1C(=O)OCC(=O)NC1CCCCC1`, the pIC50 is 5.54 and the IC90 was 3.4 µM.
As to `Cc1sc2ncnc(Oc3ccc(-n4ccnc4)cc3)c2c1C`, the pIC50 is 4.41 and the IC90 was found to be 61 µM.
`O=C(/C=C/c1ccc([N+](=O)[O-])cc1)NC1CC2CCC1C2` (configuration not stated): the negative-log IC50 (pIC50) is 4.16 and the IC90 is over 100 µM.
As for `COc1ccc(NCc2nnc(SCC(=O)c3ccc(OC)cc3)o2)cc1`, the pIC50 is 4.68 and the IC90 is 22.9 µM.
Consider `OC(CN1CCCCC1)Cn1c2ccc(Cl)cc2c2cc(Cl)ccc21` (configuration not stated), for which the pIC50 is 4.95 and the IC90 stood at 12.5 µM.
Regarding `CCCCCc1ccc(-c2cn(Cc3cccc(OC)c3)nn2)cc1`, the pIC50 was 4.41 and the IC90 was over 100 µM.
Regarding `CC/C(C)=N/NC(=S)NCc1ccco1`, the pIC50 was 4.09 and the IC90 was 91.7 µM.
Turning to `COc1cc(C2c3cc4c(cc3C(OC3OC5COC(c6cccs6)OC5C(O)C3O)C3COC(=O)C23)OCO4)cc(OC)c1O` (configuration not stated), the pIC50 was 4.56 and the IC90 turned out to be 35.4 µM.
In the same order, the values of `CCc1nnc(NC(=O)CN2CCN(c3nc(-c4ccccc4)cs3)CC2)s1` are 4.37 and 92.6 µM.
`COc1cccc(-c2cc3nc4c(c(NCC(C)(C)CN(C)C)n3n2)CCCC4)c1`: the pIC50 was 4.56 and the IC90 was found to be 36.3 µM.
With `CCC1=C(OC(=O)N(CC)CC)N2C(=O)OC(=NCCc3c[nH]c4ccccc34)[C@]2(Cc2ccccc2)[C@H]2C1=CC[C@H]1C(=O)NC(=O)[C@H]12`, the pIC50 was 4.51 and the IC90 turned out to be 45.7 µM.
Turning to `Cc1ccc(C)c(C2C(=O)c3ccccc3C2=O)c1`, the negative-log IC50 (pIC50) was 4.78 and the 90% effect concentration (IC90) turned out to be 46.8 µM.
With `CCc1cc(/C(Cc2ccccn2)=N\Nc2ccccc2)c(O)cc1O`, the pIC50 is 4.07 and the IC90 is 94.6 µM.
For `NC(=S)N/N=C/c1ccc(-c2ccccc2)o1` the same measures were 4.36 and 90.7 µM.
In the case of `C[C@]12CC[C@@H]3c4ccc(O)cc4CC[C@H]3[C@@H]1CC[C@@H]2OC(=O)CCC1CCCC1`, the pIC50 was 4.84 and the 90% effect concentration (IC90) is 35.3 µM.
